Data: paper PMC10637926 (Heliyon, 2023)

Target: AChE enzyme from Electrophorus electricus (electric eel) (Electrophorus electricus, UniProt O42275)
Assay: In vitro AChE inhibition, Ellman spectrophotometric procedure
Assay type: biochemical
Settings: for IC50: IC50 against AChE, dose dependent assay, 412 nm; for inhibition at 100 µM: read-out: AChE inhibition, mean of R1-R3

Sequence of AChE enzyme from Electrophorus electricus (electric eel) (O42275 24-633): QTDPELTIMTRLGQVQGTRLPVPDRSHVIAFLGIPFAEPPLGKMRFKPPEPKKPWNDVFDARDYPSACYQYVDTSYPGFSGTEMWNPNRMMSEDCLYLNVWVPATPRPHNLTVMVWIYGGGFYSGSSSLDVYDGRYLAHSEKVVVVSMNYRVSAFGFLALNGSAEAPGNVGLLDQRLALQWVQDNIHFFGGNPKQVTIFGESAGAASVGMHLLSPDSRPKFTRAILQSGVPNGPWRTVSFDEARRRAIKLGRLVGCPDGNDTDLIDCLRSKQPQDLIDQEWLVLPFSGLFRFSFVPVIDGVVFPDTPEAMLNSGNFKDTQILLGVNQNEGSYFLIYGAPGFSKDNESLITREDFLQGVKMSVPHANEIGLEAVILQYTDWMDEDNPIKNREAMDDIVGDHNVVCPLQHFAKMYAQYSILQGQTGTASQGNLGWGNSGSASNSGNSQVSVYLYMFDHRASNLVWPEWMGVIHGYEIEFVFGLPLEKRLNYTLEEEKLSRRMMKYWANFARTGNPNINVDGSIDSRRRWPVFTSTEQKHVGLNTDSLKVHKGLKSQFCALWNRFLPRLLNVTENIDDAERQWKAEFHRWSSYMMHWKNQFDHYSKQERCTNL

SMILES: O=c1cc(-c2ccc(O)cc2)oc2cc(O)cc(O)c12 [Apigenin]
- IC50: 13.8 µM
- inhibition at 100 µM: 80%

SMILES: O=c1c(O)c(-c2ccc(O)c(O)c2)oc2cc(O)cc(O)c12 [Quercetin]
- inhibition at 100 µM: 85.7%

SMILES: COc1c(O)cc(O)c2c(=O)cc(-c3ccccc3)oc12 [Wogonin]
- IC50: 15.5 µM
- inhibition at 100 µM: 80.3%
